Laboratory results reported in ChEMBL document CHEMBL5375941, “Combating breast cancer with non-steroidal aromatase inhibitors (NSAIs): Understanding the chemico-biological interactions through comparative SAR/QSAR study” (Eur J Med Chem, 2017).

What was measured:
[1] = molecular target: CYP450 (isoform not stated) (Homo sapiens, UniProt P04798+P05177+P05181+P08684+P10632+P10635+P11509+P11712+P13584+P20813+P20815+P20853+P24462+P24903+P33260+P33261+P51589+P78329+P98187+Q02928+Q08477+Q16678+Q16696+Q5TCH4+Q6VVX0+Q7Z449+Q8TAV3+Q96SQ9+Q9HB55); assay: in vitro; settings: Liver
[2] = molecular target: T1, Steroid 17-alpha-hydroxylase/17,20 lyase (Homo sapiens, UniProt P05093); assay type: ADME
T1 sequence (P05093 whole entry): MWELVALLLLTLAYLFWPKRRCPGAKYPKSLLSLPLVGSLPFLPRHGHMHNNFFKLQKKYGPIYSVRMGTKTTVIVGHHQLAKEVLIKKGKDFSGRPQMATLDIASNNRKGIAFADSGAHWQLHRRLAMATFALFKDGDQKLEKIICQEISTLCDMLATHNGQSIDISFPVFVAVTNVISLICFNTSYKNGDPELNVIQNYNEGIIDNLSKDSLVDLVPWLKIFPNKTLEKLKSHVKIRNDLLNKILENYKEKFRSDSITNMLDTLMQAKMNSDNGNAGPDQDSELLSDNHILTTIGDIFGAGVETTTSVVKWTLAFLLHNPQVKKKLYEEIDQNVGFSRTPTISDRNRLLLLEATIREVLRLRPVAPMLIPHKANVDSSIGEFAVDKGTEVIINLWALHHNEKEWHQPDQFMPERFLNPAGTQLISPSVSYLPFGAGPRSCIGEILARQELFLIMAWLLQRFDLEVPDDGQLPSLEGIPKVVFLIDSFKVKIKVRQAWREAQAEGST
Description: Inhibition of human testicular CYP17

Cytochrome P450 1B1 = molecular target: T2, Cytochrome P450 1B1 (Homo sapiens, UniProt Q16678)
T2 sequence (Q16678 whole entry): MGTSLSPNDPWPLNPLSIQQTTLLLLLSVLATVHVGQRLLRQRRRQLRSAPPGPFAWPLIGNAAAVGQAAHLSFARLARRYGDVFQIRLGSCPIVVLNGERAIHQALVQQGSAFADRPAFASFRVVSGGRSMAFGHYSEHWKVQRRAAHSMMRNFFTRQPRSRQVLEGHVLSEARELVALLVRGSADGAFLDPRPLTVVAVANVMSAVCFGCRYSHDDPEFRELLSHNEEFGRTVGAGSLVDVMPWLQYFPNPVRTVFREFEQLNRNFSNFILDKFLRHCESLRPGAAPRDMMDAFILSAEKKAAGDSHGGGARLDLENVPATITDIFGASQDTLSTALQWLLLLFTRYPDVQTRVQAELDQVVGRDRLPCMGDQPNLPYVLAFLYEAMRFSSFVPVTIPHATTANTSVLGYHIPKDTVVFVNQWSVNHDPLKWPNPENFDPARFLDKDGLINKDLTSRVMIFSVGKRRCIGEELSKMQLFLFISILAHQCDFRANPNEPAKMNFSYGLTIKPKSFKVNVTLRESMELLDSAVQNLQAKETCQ
Description: Inhibition of recombinant human CYP1B1 using 7-ethyl-0-resorufin as substrate incubated for 30 mins in presence of NADPH

Cytochrome P450 2C19 = Cytochrome P450 2C19 (Homo sapiens, UniProt P33261)
Cytochrome P450 2C19, sequence (P33261 whole entry): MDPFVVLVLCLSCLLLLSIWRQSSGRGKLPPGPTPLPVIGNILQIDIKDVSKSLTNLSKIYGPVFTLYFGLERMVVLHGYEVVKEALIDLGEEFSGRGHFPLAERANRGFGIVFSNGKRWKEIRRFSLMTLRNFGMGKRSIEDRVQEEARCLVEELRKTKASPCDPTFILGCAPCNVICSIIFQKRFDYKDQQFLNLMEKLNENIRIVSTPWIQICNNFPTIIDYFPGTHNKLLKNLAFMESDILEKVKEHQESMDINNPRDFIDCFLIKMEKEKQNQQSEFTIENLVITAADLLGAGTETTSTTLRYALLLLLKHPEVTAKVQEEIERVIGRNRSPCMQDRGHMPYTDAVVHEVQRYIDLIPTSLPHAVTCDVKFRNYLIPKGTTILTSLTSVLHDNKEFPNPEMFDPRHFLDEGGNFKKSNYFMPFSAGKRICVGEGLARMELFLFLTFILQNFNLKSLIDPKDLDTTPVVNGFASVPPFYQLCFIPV
Description: Inhibition of CYP2C19 in human liver microsomes incubated in presence NADPH

Aromatase = molecular target: T3, Aromatase (Homo sapiens, UniProt P11511); assay type: cell-based, JEG-3
T3 sequence (P11511 whole entry): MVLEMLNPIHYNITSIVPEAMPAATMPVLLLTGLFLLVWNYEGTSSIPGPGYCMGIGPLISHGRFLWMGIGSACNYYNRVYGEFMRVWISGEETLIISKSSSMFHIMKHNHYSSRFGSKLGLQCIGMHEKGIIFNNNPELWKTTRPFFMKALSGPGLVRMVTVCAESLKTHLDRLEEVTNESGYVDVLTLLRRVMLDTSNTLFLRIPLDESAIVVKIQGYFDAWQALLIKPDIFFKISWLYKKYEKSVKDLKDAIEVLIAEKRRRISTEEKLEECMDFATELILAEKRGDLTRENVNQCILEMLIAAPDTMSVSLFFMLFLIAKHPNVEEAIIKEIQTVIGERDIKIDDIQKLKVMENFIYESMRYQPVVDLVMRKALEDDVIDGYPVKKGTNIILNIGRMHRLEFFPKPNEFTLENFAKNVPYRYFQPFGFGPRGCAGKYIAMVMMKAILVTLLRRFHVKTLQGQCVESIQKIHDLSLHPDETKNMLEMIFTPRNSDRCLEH

An IC50 [1] of 2810 µM was found for `Oc1ccc2c(c1)CCC1C(c3ccncc3)C21` (stereo unspecified) in this work.
An IC50 [2] of 39.5 µM was found for `c1ccc2c(c1)CCC1C(c3ccncc3)C21` (stereo unspecified) in this work.
A pIC50 (Cytochrome P450 1B1) of 13.573 was found for `COc1ccc(/C=C/c2c(CC=C(C)C)c(O)cc(O)c2CC=C(C)C)cc1` in this work.
An IC50 (Cytochrome P450 2C19) of 10 µM was found for `CCn1cc(C(c2ccc(Cl)cc2)n2ccnn2)c2cc(Br)ccc21` (stereo unspecified) in this work.
An IC50 (Aromatase) of 0.00701 µM was found for `N#Cc1ccccc1-c1cccc(Cn2cncn2)c1` in this work.
An IC50 [1] of 6.05 µM was found for `Oc1cccc2c1CCC1C(c3ccncc3)C21` (stereo unspecified) in this work.
